We go through 80 substances from the OligoGym collection.

Only the 19 paired bases of each siRNA are shown; overhangs and chemistry are not given here.
Further: test concentration or dose not given here.

The first series has as its target LMNA. Nature of the series: five studies, different assays. Conditions: siRNA.
In the case of “sense AGGAGCUGGAGAAGACUUA / antisense UAAGUCUUCUCCAGCUCCU”, the target inhibition stood at 98%.

For “sense AGCAGUAUAAGAAGGAGCU / antisense AGCUCCUUCUUAUACUGCU”, the target inhibition came out at 84%.

Turning to “sense GAGAAGACUUAUUCUGCCA / antisense UGGCAGAAUAAGUCUUCUC”, the target inhibition was found to be 97%.

Consider “sense UAAGAAGGAGCUGGAGAAG / antisense CUUCUCCAGCUCCUUCUUA”, for which the target inhibition was determined as 67%.

Take “sense UGGAGAAGACUUAUUCUGC / antisense GCAGAAUAAGUCUUCUCCA”: the target inhibition turned out to be 81%.

Turning to “sense UAUAAGAAGGAGCUGGAGA / antisense UCUCCAGCUCCUUCUUAUA”, the target inhibition turned out to be 90%.

On to “sense CUGGACUUCCAGAAGAACA / antisense UGUUCUUCUGGAAGUCCAG”, for which the target inhibition amounted to 98%.

On to “sense AGCGCAAACUGGAGUCCAC / antisense GUGGACUCCAGUUUGCGCU”, for which the target inhibition came to 98%.

As to “sense AAGGAGCUGGAGAAGACUU / antisense AAGUCUUCUCCAGCUCCUU”, the target inhibition came out at 91%.

Consider “sense GGAGCUGGAGAAGACUUAU / antisense AUAAGUCUUCUCCAGCUCC”, for which the target inhibition was found to be 95%.

On to “sense GAAGUGGCCAUGCGCAAGC / antisense GCUUGCGCAUGGCCACUUC”, for which the target inhibition was 70%.

As for “sense AGUAUAAGAAGGAGCUGGA / antisense UCCAGCUCCUUCUUAUACU”, the target inhibition amounted to 95%.

With “sense GGAGGACCUGCAGGAGCUC / antisense GAGCUCCUGCAGGUCCUCC”, the target inhibition was 83%.

In the case of “sense GAGCUGGAGAAGACUUAUU / antisense AAUAAGUCUUCUCCAGCUC”, the target inhibition is 96%.

“sense GCUGGACAAUGCCAGGCAG / antisense CUGCCUGGCAUUGUCCAGC”: the target inhibition was 84%.

Consider “sense CAGUAUAAGAAGGAGCUGG / antisense CCAGCUCCUUCUUAUACUG”, for which the target inhibition was found to be 95%.

With “sense GCCAAAGAAAAAUAACCCU / antisense AGGGUUAUUUUUCUUUGGC”, the target inhibition was found to be 96%.

On to “sense GUUAUUUUCUACAGUGGUU / antisense AACCACUGUAGAAAAUAAC”, for which the target inhibition was 98%.

Consider “sense AGAAGGAGCUGGAGAAGAC / antisense GUCUUCUCCAGCUCCUUCU”, for which the target inhibition turned out to be 96%.

“sense GCUGGAGAAGACUUAUUCU / antisense AGAAUAAGUCUUCUCCAGC”: the target inhibition came out at 96%.

Regarding “sense UGCCAGGCAGUCUGCUGAG / antisense CUCAGCAGACUGCCUGGCA”, the target inhibition was 81%.

In the case of “sense CUGCUCUCAGUGAGAAGCG / antisense CGCUUCUCACUGAGAGCAG”, the target inhibition amounted to 88%.

As to “sense GUAUAAGAAGGAGCUGGAG / antisense CUCCAGCUCCUUCUUAUAC”, the target inhibition amounted to 96%.

Regarding “sense CAAGUCCAAUGAGGACCAG / antisense CUGGUCCUCAUUGGACUUG”, the target inhibition is 79%.

As for “sense GCAGUAUAAGAAGGAGCUG / antisense CAGCUCCUUCUUAUACUGC”, the target inhibition amounted to 82%.

Consider “sense GCCUGCGUACGGCUCUCAU / antisense AUGAGAGCCGUACGCAGGC”, for which the target inhibition stood at 97%.

Regarding “sense GAGGUGGUCAGCCGCGAGG / antisense CCUCGCGGCUGACCACCUC”, the target inhibition is 80%.

Regarding “sense GGUGGUGACGAUCUGGGCU / antisense AGCCCAGAUCGUCACCACC”, the target inhibition worked out at 92%.

As for “sense AUAAGAAGGAGCUGGAGAA / antisense UUCUCCAGCUCCUUCUUAU”, the target inhibition amounted to 96%.

On to “sense GGCAUCUGCCAGCGGCUCA / antisense UGAGCCGCUGGCAGAUGCC”, for which the target inhibition was determined as 92%.

On to “sense UCUGGUCACCCGCUCCUAC / antisense GUAGGAGCGGGUGACCAGA”, for which the target inhibition amounted to 83%.

For the next series, the target named is ICAM1. As to the kind of experiment: five studies, different assays. As to conditions: siRNA.
In the case of “sense ACGGUGCUGGUGAGGAGAG / antisense CUCUCCUCACCAGCACCGU”, the target inhibition was -20%.

As to “sense CCUCUUGGCAGCCAGUGGG / antisense CCCACUGGCUGCCAAGAGG”, the target inhibition is 18%.

Turning to “sense GGGCAUUGUCCUCAGUCAG / antisense CUGACUGAGGACAAUGCCC”, the target inhibition turned out to be 62%.

Consider “sense AGUGAUCCUCCCACCUCAG / antisense CUGAGGUGGGAGGAUCACU”, for which the target inhibition came to 45%.

On to “sense GGAGCUUCGUGUCCUGUAU / antisense AUACAGGACACGAAGCUCC”, for which the target inhibition stood at 58%.

Regarding “sense UGACGGAUGCCAGCUUGGG / antisense CCCAAGCUGGCAUCCGUCA”, the target inhibition was determined as 29%.

For “sense CAUUGGCCAACCUGCCUUU / antisense AAAGGCAGGUUGGCCAAUG”, the target inhibition was determined as 28%.

Turning to “sense UAUUGGGUAUGCUGAGGCC / antisense GGCCUCAGCAUACCCAAUA”, the target inhibition amounted to 43%.

With “sense UAGGCUCACAACACCACAC / antisense GUGUGGUGUUGUGAGCCUA”, the target inhibition stood at 41%.

Consider “sense ACCUCUGUCGGGCCAGGAG / antisense CUCCUGGCCCGACAGAGGU”, for which the target inhibition was 5%.

“sense ACACUGCAGGAGAGUGCCU / antisense AGGCACUCUCCUGCAGUGU”: the target inhibition was determined as 0%.

With “sense UGAACCUAUCCCGGGACAG / antisense CUGUCCCGGGAUAGGUUCA”, the target inhibition came out at 20%.

“sense CCAUGAAACCGAACACACA / antisense UGUGUGUUCGGUUUCAUGG”: the target inhibition turned out to be 59%.

Turning to “sense CGGAUGCCAGCUUGGGCAC / antisense GUGCCCAAGCUGGCAUCCG”, the target inhibition was 24%.

For “sense UGUGUGUGUGUGUAUGUGU / antisense ACACAUACACACACACACA”, the target inhibition came to 7%.

As to “sense CCAUGAGGACAUACAACUG / antisense CAGUUGUAUGUCCUCAUGG”, the target inhibition amounted to 58%.

With “sense GGUCUCUGGCCUCACGGAG / antisense CUCCGUGAGGCCAGAGACC”, the target inhibition was found to be 7%.

With “sense UCAGAGUUGCAACCUCAGC / antisense GCUGAGGUUGCAACUCUGA”, the target inhibition amounted to 1%.

“sense GAUUCUGACGAAGCCAGAG / antisense CUCUGGCUUCGUCAGAAUC”: the target inhibition was -10%.

Regarding “sense CCAACCAAUGUGCUAUUCA / antisense UGAAUAGCACAUUGGUUGG”, the target inhibition came to 7%.

Take “sense UUGCACUAUUGCAGCUCCA / antisense UGGAGCUGCAAUAGUGCAA”: the target inhibition amounted to 5%.

Consider “sense AGCUCCUGCUGAAGGCCAC / antisense GUGGCCUUCAGCAGGAGCU”, for which the target inhibition was determined as 10%.

“sense CCUACCAGCUCCAGACCUU / antisense AAGGUCUGGAGCUGGUAGG”: the target inhibition came to 45%.

As for “sense CUCAGCGGUCAUGUCUGGA / antisense UCCAGACAUGACCGCUGAG”, the target inhibition was 33%.

On to “sense GCCACACUGAACAGAGUGG / antisense CCACUCUGUUCAGUGUGGC”, for which the target inhibition was 21%.

As for “sense UCCAUAGACAUGUGUAGCA / antisense UGCUACACAUGUCUAUGGA”, the target inhibition came to 63%.

On to “sense CCAGACUUCCUUUGUGUUA / antisense UAACACAAAGGAAGUCUGG”, for which the target inhibition stood at 48%.

Take “sense AGUCGACGCUGAGCUCCUC / antisense GAGGAGCUCAGCGUCGACU”: the target inhibition stood at 0%.

Turning to “sense GUCAUCAUCACUGUGGUAG / antisense CUACCACAGUGAUGAUGAC”, the target inhibition came out at 35%.

For “sense GCUCAAGUGUCUAAAGGAU / antisense AUCCUUUAGACACUUGAGC”, the target inhibition is 40%.

On to “sense GGGACAGGGCCUCUUCCUC / antisense GAGGAAGAGGCCCUGUCCC”, for which the target inhibition is 52%.

As for “sense GGAUGCCAGCUUGGGCACU / antisense AGUGCCCAAGCUGGCAUCC”, the target inhibition is 40%.

On to “sense CCAUGGUACCUGCACACCU / antisense AGGUGUGCAGGUACCAUGG”, for which the target inhibition was found to be 75%.

Consider “sense GACGUGUGCAGUAAUACUG / antisense CAGUAUUACUGCACACGUC”, for which the target inhibition was 30%.

With “sense UCACAGGUUCAGAGAUUAC / antisense GUAAUCUCUGAACCUGUGA”, the target inhibition was 34%.

On to “sense GGUCCUAGAGGUGGACACG / antisense CGUGUCCACCUCUAGGACC”, for which the target inhibition was 10%.

In the case of “sense AAGUCUAGCCUGAUGAGAG / antisense CUCUCAUCAGGCUAGACUU”, the target inhibition stood at 50%.

On to “sense AACACACAAGCCACGCCUC / antisense GAGGCGUGGCUUGUGUGUU”, for which the target inhibition turned out to be 1%.

With “sense AAGGAGUUGCUCCUGCCUG / antisense CAGGCAGGAGCAACUCCUU”, the target inhibition was -15%.

Regarding “sense CCAGGUCCACCUGGCACUG / antisense CAGUGCCAGGUGGACCUGG”, the target inhibition worked out at 21%.

In the next series the target is PTEN. Nature of the series: five studies, different assays. Conditions: siRNA.
For “sense UCUCGGAAGCUGCAGCCAU / antisense AUGGCUGCAGCUUCCGAGA”, the target inhibition was 40%.

As to “sense UGACACCGCCAAAUUUAAU / antisense AUUAAAUUUGGCGGUGUCA”, the target inhibition turned out to be 65%.

“sense AAGUAAGGACCAGAGACAA / antisense UUGUCUCUGGUCCUUACUU”: the target inhibition turned out to be 75%.

Turning to “sense GCGGCGGCGGCACCUCCCG / antisense CGGGAGGUGCCGCCGCCGC”, the target inhibition turned out to be 20%.

On to “sense UCAAAGUAGAGUUCUUCCA / antisense UGGAAGAACUCUACUUUGA”, for which the target inhibition was 30%.

Regarding “sense CAAAUCCAGAGGCUAGCAG / antisense CUGCUAGCCUCUGGAUUUG”, the target inhibition was 44%.

Consider “sense UUUCCAUCCUGCAGAAGAA / antisense UUCUUCUGCAGGAUGGAAA”, for which the target inhibition stood at 27%.

For “sense GAGGCAGCCGUUCGGAGGA / antisense UCCUCCGAACGGCUGCCUC”, the target inhibition came out at 58%.

Consider “sense GCUACAGUUAUUAAUCUGG / antisense CCAGAUUAAUAACUGUAGC”, for which the target inhibition was 37%.
